# Results published in patent publication US9834535B2, “Sulfamate derivative compounds for use in treating or alleviating pain” (Bio-Pharm Solutions Co., Ltd., priority 2013, dated 2017).
# Tested on: CFA-induced pain model
# Assay: Antiallodynic activity on Complete Freund's Adjuvant (CFA)-induced inflammatory pain model (von Frey)
# Type: in vivo, Sprague-Dawley rats
# Conditions: 60 mg/kg, 0.5 h, rat, intraperitoneal
# Description: Male, Sprague-Dawley rats (200-220 g, Nara Bio, Korea) were habituated for 1 week before surgery and allowed free access to food and water throughout the experimentation. Room temperature and humidity were maintained at 24±2° C. and 50±10%, respectively.
# CFA-induced inflammatory pain was induced by the procedure of Nagakura et al. (2003) and Gregory P. et al. (2010) with minor modifications. CFA (sigma, USA) was injected in the left plantar with a 100 ul volume under gaseous anesthesia with isoflurane a 4:4 flow ratio of NO2 Sham controls were injected with 100 ul of saline and vehicle controls were identical to CFA infusion model, except for administration of vehicles.
# Tactile sensitivity (Mechanical allodynia) was evaluated using von Frey monofilaments before and after treatment, and animals were used withdrawal threshold value was less than 4 g. One week after surgery, CFA-infused animals (n=4˜6), sham-operated animals (n=12), and vehicle-operated animals (n=17) were tested for tactile sensitivity with von Frey monofilaments 3 trials in each animal. All Animals were placed in a stainless steel mashed chamber and habituated for 30 min in the test box. The tactile sensitivity for ipsilateral hind paw was measured using the up-and-down method (Dixon, 1980) with seven von Frey monofilaments (0.4, 1, 2, 4, 6, 8, and 15 g) to 3 trials. Tactile sensitivity test was followed by Dixon's method (Dixon, 1980). The 50% paw withdrawal threshold for each paw was calculated using the following formula: [Xth] log=[vFr] log+ky where [vFr] is the force of the last von Frey used, k=0.2249 which is the average interval (in log units) between the von Frey monofilaments, and y is a value that depends upon the pattern of withdrawal responses (Dixon, 1980).
# […] The test was performed peak time of efficacy (0.5 hr) after compound administration.
# The relative values compared to the sham (% control) were calculated and shown in Table 4, which show an antiallodynic effect of the compound of Examples on CFA-induced pain model in rats.
row,SMILES,CFA model: effect (%) at the concentration administered
1,"CC1(C)OC(COS(N)(=O)=O)C(c2ccccc2Cl)O1 (mixture of isomers) [Example 3, (5-(2-chlorophenyl)-2,2-dimethyl-1,3-dioxolan-4-yl)methyl sulfamate(SS & RR mixture)]","^#60 (24.0%, 0.5 h)"
2,"CC1(C)OC(COS(N)(=O)=O)C(c2ccccc2Cl)O1 (mixture of isomers) [Example 4, (5-(2-chlorophenyl)-2,2-dimethyl-1,3-dioxolan-4-yl)methyl sulfamate(SR & RS mixture)]","^#60 (49.9%, 0.5 h)"

# Same assay, conditions: Rattus norvegicus, ip, 0.5 h, 18 mg/kg, 0.5 h, rat, intraperitoneal; read-out: CFA model: effect (%) at the concentration administered
row,SMILES,response vs control in vivo at 18 mg/kg [%]
1,"NS(=O)(=O)OC[C@@H]1OC2(CCCCC2)O[C@H]1c1ccccc1Cl [Example 12, ((2S,3S)-3-(2-chlorophenyl)-1,4-dioxaspiro[4,5]decan-2-yl)methyl sulfamate]",48.8
2,"NS(=O)(=O)OC[C@H]1OC2(CCCCC2)O[C@@H]1Cc1ccccc1 [Example 128, ((2R,3R)-3-benzyl-1,4-dioxaspiro[4,5]decan-2-yl)methyl sulfamate]",24.5
3,"NS(=O)(=O)OCC[C@@H]1OC2(CCCC2)O[C@H]1c1ccccc1 [Example 134, 2-((2S,3S)-3-phenyl-1,4-dioxaspiro[4,4]nonan-2-yl)ethyl sulfamate]",71.1
4,"NS(=O)(=O)OCC[C@@H]1OC2(CCCCC2)O[C@H]1c1ccccc1 [Example 136, 2-((2S,3S)-3-phenyl-1,4-dioxaspiro[4,5]decan-2-yl)ethyl sulfamate]",32.4

# Same assay, conditions: Rattus norvegicus, ip, 0.5 h, 40 mg/kg, 0.5 h, rat, intraperitoneal; read-out: CFA model: effect (%) at the concentration administered
row,SMILES,response vs control in vivo at 40 mg/kg [%]
1,"CCC1(CC)O[C@@H](COS(N)(=O)=O)[C@H](c2ccccc2Cl)O1 [Example 8, ((4S,5S)-5-(2-chlorophenyl)-2,2-diethyl-1,3-dioxolan-4-yl)methyl sulfamate]",23.3
2,"CCC1(CC)O[C@@H](COS(N)(=O)=O)[C@H](c2ccccc2N)O1 [Example 70, ((4S,5S)-5-(2-aminophenyl)-2,2-diethyl-1,3-dioxolan-4-yl)methyl sulfamate]",18.8
3,"CNc1ccccc1[C@@H]1OC(C)(C)O[C@H]1COS(=O)(=O)NC [Example 104, ((4S, 5S)-5-(2-methylaminophenyl)-2,2-dimethyl-1,3-dioxolan-4-yl)methyl methylsulfamate]",24.1
4,"CCC1(CC)O[C@@H](COS(N)(=O)=O)[C@H](c2ccccc2)O1 [Example 108, ((4S,5S)-5-phenyl-2,2-diethyl-1,3-dioxolan-4-yl)methyl sulfamate]",37.5
5,"NS(=O)(=O)OC[C@@H]1OC2(CCCC2)O[C@H]1c1ccccc1 [Example 110, ((2S,3S)-3-phenyl-1,4-dioxaspiro[4,4]nonan-2-yl)methyl sulfamate]",42.7
6,"NS(=O)(=O)OC[C@@H]1OC2(CCCCC2)O[C@H]1c1ccccc1 [Example 112, ((2S,3S)-3-phenyl-1,4-dioxaspiro[4,5]decan-2-yl)methyl sulfamate]",41.1
7,"CC1(C)O[C@H](CCOS(N)(=O)=O)[C@@H](Cc2ccccc2)O1 [Example 114, 2-((4R,5R)-5-benzyl-2,2-dimethyl-1,3-dioxolan-4-yl)ethyl sulfamate]",29.8
8,"CCC1(CC)O[C@H](CCOS(N)(=O)=O)[C@@H](Cc2ccccc2)O1 [Example 116, 2-((4R,5R)-5-benzyl-2,2-diethyl-1,3-dioxolan-4-yl)ethyl sulfamate]",14.5
9,"NS(=O)(=O)OCC[C@H]1OC2(CCCCC2)O[C@@H]1Cc1ccccc1 [Example 120, 2-((2R,3R)-3-benzyl-1,4-dioxaspiro[4,5]decan-2-yl)ethyl sulfamate]",23
10,"CCC1(CC)O[C@H](COS(N)(=O)=O)[C@@H](Cc2ccccc2)O1 [Example 124, ((4R,5R)-5-benzyl-2,2-diethyl-1,3-dioxolan-4-yl)methyl sulfamate]",34.2
11,"NS(=O)(=O)OC[C@H]1OC2(CCCC2)O[C@@H]1Cc1ccccc1 [Example 126, ((2R,3R)-3-benzyl-1,4-dioxaspiro[4,4]nonan-2-yl)methyl sulfamate]",43.5
12,"CC1(C)O[C@@H](CCOS(N)(=O)=O)[C@H](c2ccccc2)O1 [Example 130, 2-((4S,5S)-5-phenyl-2,2-dimethyl-1,3-dioxolan-4-yl)ethyl sulfamate]",19.4
13,"CCC1(CC)O[C@@H](CCOS(N)(=O)=O)[C@H](c2ccccc2)O1 [Example 132, 2-((4S,5S)-5-phenyl-2,2-diethyl-1,3-dioxolan-4-yl)ethyl sulfamate]",24.8
14,"CCC1(CC)O[C@H](CCOS(N)(=O)=O)[C@@H](Cc2ccccc2Cl)O1 [Example 140, 2-((4R,5R)-5-(2-chlorobenzyl)-2,2-diethyl-1,3-dioxolan-4-yl)ethyl sulfamate]",37.4
15,"NS(=O)(=O)OCC[C@H]1OC2(CCCCC2)O[C@@H]1Cc1ccccc1Cl [Example 144, 2-((2R,3R)-3-(2-chlorobenzyl)-1,4-dioxaspiro[4,5]decan-2-yl)ethyl sulfamate]",36.6
16,"CCC1(CC)O[C@H](COS(N)(=O)=O)[C@@H](Cc2ccccc2Cl)O1 [Example 148, ((4R,5R)-5-(2-chlorobenzyl)-2,2-diethyl-1,3-dioxolan-4-yl)methyl sulfamate]",15.5
17,"NS(=O)(=O)OC[C@H]1OC2(CCCC2)O[C@@H]1Cc1ccccc1Cl [Example 150, ((2R,3R)-3-(2-chlorobenzyl)-1,4-dioxaspiro[4,4]nonan-2-yl)methyl sulfamate]",17.6
18,"NS(=O)(=O)OC[C@H]1OC2(CCCCC2)O[C@@H]1Cc1ccccc1Cl [Example 152, ((2R,3R)-3-(2-chlorobenzyl)-1,4-dioxaspiro[4,5]decan-2-yl)methyl sulfamate]",34.9
19,"CC1(C)O[C@@H](CCOS(N)(=O)=O)[C@H](c2ccccc2Cl)O1 [Example 154, 2-((4S,5S)-5-(2-chlorophenyl)-2,2-dimethyl-1,3-dioxolan-4-yl)ethyl sulfamate]",32.1
20,"CCC1(CC)O[C@@H](CCOS(N)(=O)=O)[C@H](c2ccccc2Cl)O1 [Example 156, 2-((4S,5S)-5-(2-chlorophenyl)-2,2-diethyl-1,3-dioxolan-4-yl)ethyl sulfamate]",30.8

# Same assay, conditions: Rattus norvegicus, ip, 0.5 h, 60 mg/kg, 0.5 h, rat, intraperitoneal; read-out: CFA model: effect (%) at the concentration administered
row,SMILES,response vs control in vivo at 60 mg/kg [%]
1,"CC1(C)O[C@H](c2cnc(Cl)s2)[C@@H](COS(N)(=O)=O)O1 (stereo in doubt) [Example 166, ((4R,5S)-5-(2-chlorothiazol-5-yl)-2,2-dimethyl-1,3-dioxolan-4-yl)methyl sulfamate]",30.4
2,"CC1(C)O[C@H](c2ccccc2Cl)[C@@H](COS(N)(=O)=O)O1 [Example 1, ((4R,5R)-5-(2-chlorophenyl)-2,2-dimethyl-1,3-dioxolan-4-yl)methyl sulfamate]",21.1
3,"CC1O[C@@H](COS(N)(=O)=O)[C@H](c2ccccc2Cl)O1 (stereo partly drawn) [Example 6, ((4S,5S)-5-(2-chlorophenyl)-2-methyl-1,3-dioxolan-4-yl)methyl sulfamate]",22.4
4,"NS(=O)(=O)OC[C@@H]1OC2(CCCC2)O[C@H]1c1ccccc1Cl [Example 10, ((2S,3S)-3-(2-chlorophenyl)-1,4-dioxaspiro[4,4]nonan-2-yl)methyl sulfamate]",20.7
5,"CC1(C)O[C@@H](COS(N)(=O)=O)[C@H](c2ccc(Cl)cc2Cl)O1 [Example 40, ((4S,5S)-5-(2,4-dichlorophenyl)-2,2-dimethyl-1,3-dioxolan-4-yl)methyl sulfamate]",22.5
6,"CC1(C)O[C@@H](COS(N)(=O)=O)[C@H](c2c(Cl)cccc2Cl)O1 [Example 52, ((4S,5S)-5-(2,6-dichlorophenyl)-2,2-dimethyl-1,3-dioxolan-4-yl)methyl sulfamate]",33.3
7,"Nc1ccccc1[C@@H]1OC2(CCCCC2)O[C@H]1COS(N)(=O)=O [Example 74, ((2S,3S)-3-(2-aminophenyl)-1,4-dioxaspiro[4,5]decan-2-yl)methyl sulfamate]",37.1
8,"NS(=O)(=O)OC[C@@H]1OC(=O)O[C@H]1c1ccccc1[N+](=O)[O-] [Example 90, ((4S, 5S)-5-(2-nitrophenyl)-2-oxo-1,3-dioxolan-4-yl)methyl sulfamate]",15.6

# Same assay, conditions: Rattus norvegicus, ip, 1 h, 60 mg/kg, 1 h, rat, intraperitoneal; read-out: CFA model: effect (%) at the concentration administered
row,SMILES,response vs control in vivo at 60 mg/kg [%]
1,CC1(C)O[C@@H](COS(N)(=O)=O)[C@H](c2ccccc2N)O1 [Example 66],16.5
